In patent US20260217692A1 (Ascentage Pharma (Suzhou) Co., Ltd., priority 2023, published 2026):
Where a name gives a salt, the structure may show the parent alone. Blank lines part the entries; values can stand above or below the compound they belong to.

Tests used:
Assay type in all cases: physicochemical
[1] = Polymorph screening test, suspension method (crystal form by XRPD after stirring in solvent); details: for Crystal form (XRPD): free base screening, 3 days
Experimental: (or 50° C.) for 3 days in the dark and centrifuged to remove the supernatant; the resulting precipitate was dried under vacuum (25° C., −0.1 MPa); and the resulting solid was collected and subjected to the XRPD test. The results are as follows:
(or 50° C./80° C.) for 3 days in the dark and centrifuged to remove the supernatant; and the resulting precipitate was dried under vacuum (25° C., −0.1 MPa).
(or 50° C.) for 3 days in the dark and centrifuged to remove the supernatant; and the resulting precipitate was dried under vacuum (25° C., −0.1 MPa).

[2] = Stability of crystal forms under stability test conditions (appearance, XRPD, HPLC); details: for Total impurities: HPLC
Experimental: The samples were placed under the stability conditions shown in the following table, sampling was performed at the corresponding time points, and the samples were subjected to appearance and XRPD tests. […] The stability results obtained are recorded in the following table. […] The samples were placed under the stability test conditions shown in the following table, sampling was performed at different time points, and the samples were subjected to the XRPD test. […] The samples were placed in an open state under the stability test conditions of 40° C./75% RH and 90% RH; and the samples were placed in a closed state at 60° C. in a light box (the test samples in the dark were placed in the same manner as the illumination test samples, and the treatment was performed in the dark). Sampling was performed at different time points, and the samples were subjected to the XRPD test. […] The samples were placed under the stability conditions shown in the following table, sampling was performed at the corresponding time points, and the samples were subjected to appearance and XRPD tests. […] The stability results obtained are recorded in the following table.

[3] = Dynamic vapor sorption (DVS) hygroscopicity test; details: 25° C. and 80% RH
Text: In the present disclosure, the DVS test parameters are set as follows: [table]

[4] = 0 d, listed as Phosphate crystal form E

hygroscopic weight gain (DVS curve) [3]: 0.31±0.005%
SMILES: Cc1cc(Nc2ncc(Cl)c(Nc3ccccc3S(=O)(=O)C(C)C)n2)c(OC(C)C)cc1C1=CCN(C2CCOCC2)CC1 [crystal form C]

Total impurities ([2]; 0 d): 0.18% | Total impurities ([2]; 40° C./75% RH, 1 M): 0.19% | Total impurities ([2]; 40° C./75% RH, 10 d): 0.19% | Total impurities ([2]; 60° C., 1 M): 0.22% | Total impurities ([2]; 60° C., 10 d): 0.19% | Total impurities ([2]; 90% RH, 1 M): 0.19% | Total impurities ([2]; 90% RH, 10 d): 0.18% | Total impurities ([2]; Illumination, 5 d): 0.48% | Appearance ([2]; Illumination, 5 d and 10 d): Color deepening | Total impurities ([2]; Illumination, 10 d): 0.55% | stability of crystal form in solvents, citrate polymorph screening test ([1]; in solvents): relatively good stability | crystal form when stirred in solvent ([1]; methanol, ethanol, acetonitrile, acetone, ethyl acetate, dichloromethane, tetrahydrofuran, n-heptane, dioxane, or mixed solvent of methanol, acetonitrile, or acetone with water, 40° C.): remained stable
SMILES: Cc1cc(Nc2ncc(Cl)c(Nc3ccccc3S(=O)(=O)C(C)C)n2)c(OC(C)C)cc1C1=CCN(C2CCOCC2)CC1 [one equivalent of citrate crystal form B]

stability of crystal form in solvent, suspension method ([1]; acetone, tetrahydrofuran, n-heptane, or dioxane): relatively good stability | crystal form when stirred in solvent ([1]; acetone, tetrahydrofuran, n-heptane, or dioxane at 40° C.): remained stable
SMILES: Cc1cc(Nc2ncc(Cl)c(Nc3ccccc3S(=O)(=O)C(C)C)n2)c(OC(C)C)cc1C1=CCN(C2CCOCC2)CC1 [one equivalent of tartrate crystal form B]

Second part, the compound before the results:

SMILES: Cc1cc(Nc2ncc(Cl)c(Nc3ccccc3S(=O)(=O)C(C)C)n2)c(OC(C)C)cc1C1=CCN(C2CCOCC2)CC1 [listing 1 of 3 here]
Crystal form (XRPD) ([1]; suspension in 1,4-Dioxane, 25° C.): Crystal form G | Crystal form (XRPD) ([1]; suspension in 1,4-Dioxane, 50° C.): Crystal form D | Crystal form (XRPD) ([1]; suspension in 2-MeTHF, 25° C.): Crystal form D | Crystal form (XRPD) ([1]; suspension in 2-MeTHF, 50° C.): Crystal form D | Crystal form (XRPD) ([1]; suspension in ACN/water (1/1, v/v), 25° C.): Crystal form D | Crystal form (XRPD) ([1]; suspension in ACN/water (1/1, v/v), 50° C.): Crystal form D | Crystal form (XRPD) ([1]; suspension in Acetone, 25° C.): Crystal form E | Crystal form (XRPD) ([1]; suspension in Acetone, 50° C.): Crystal form E | Crystal form (XRPD) ([1]; suspension in Acetone/water (1:1, v/v), 25° C.): Crystal form D | Crystal form (XRPD) ([1]; suspension in Acetone/water (1:1, v/v), 50° C.): Crystal form D | Crystal form (XRPD) ([1]; suspension in Acetonitrile, 25° C.): Crystal form D | Crystal form (XRPD) ([1]; suspension in Acetonitrile, 50° C.): Crystal form D | Crystal form (XRPD) ([1]; suspension in Cyclohexane, 25° C.): Crystal form D | Crystal form (XRPD) ([1]; suspension in Cyclohexane, 50° C.): Crystal form D | Crystal form (XRPD) ([1]; suspension in Dichloromethane, 25° C.): No solid sample was obtained | Crystal form (XRPD) ([1]; suspension in Dichloromethane, 50° C.): No solid sample was obtained | Crystal form (XRPD) ([1]; suspension in Ethanol, 25° C.): Crystal form B | Crystal form (XRPD) ([1]; suspension in Ethanol, 50° C.): Crystal form D | Crystal form (XRPD) ([1]; suspension in Ethyl acetate, 25° C.): Crystal form D | Crystal form (XRPD) ([1]; suspension in Ethyl acetate, 50° C.): Crystal form D | Crystal form (XRPD) ([1]; suspension in Isopropanol, 25° C.): Crystal form C | Crystal form (XRPD) ([1]; suspension in Isopropanol, 50° C.): Crystal form D | Crystal form (XRPD) ([1]; suspension in Isopropyl acetate, 25° C.): Crystal form D | Crystal form (XRPD) ([1]; suspension in Isopropyl acetate, 50° C.): Crystal form D | Crystal form (XRPD) ([1]; suspension in MA, 25° C.): Crystal form D | Crystal form (XRPD) ([1]; suspension in MA, 50° C.): Crystal form D | Crystal form (XRPD) ([1]; suspension in MEK, 25° C.): Crystal form D | Crystal form (XRPD) ([1]; suspension in MEK, 50° C.): Crystal form D | Crystal form (XRPD) ([1]; suspension in MIBK, 25° C.): Crystal form D | Crystal form (XRPD) ([1]; suspension in MIBK, 50° C.): Crystal form D | Crystal form (XRPD) ([1]; suspension in MeOH/water (1:1, v/v), 25° C.): Crystal form D | Crystal form (XRPD) ([1]; suspension in MeOH/water (1:1, v/v), 50° C.): Crystal form D | Crystal form (XRPD) ([1]; suspension in Methanol, 25° C.): Crystal form A | Crystal form (XRPD) ([1]; suspension in Methanol, 50° C.): Crystal form I | Crystal form (XRPD) ([1]; suspension in Methyl tert-butyl ether, 25° C.): Crystal form D | Crystal form (XRPD) ([1]; suspension in Methyl tert-butyl ether, 50° C.): Crystal form C | Crystal form (XRPD) ([1]; suspension in Tetrahydrofuran, 25° C.): Crystal form F | Crystal form (XRPD) ([1]; suspension in Tetrahydrofuran, 50° C.): No solid sample was obtained | Crystal form (XRPD) ([1]; suspension in Toluene, 25° C.): Crystal form D | Crystal form (XRPD) ([1]; suspension in Toluene, 50° C.): No solid sample was obtained | Crystal form (XRPD) ([1]; suspension in Water, 25° C.): Crystal form H | Crystal form (XRPD) ([1]; suspension in Water, 50° C.): Crystal form J | Crystal form (XRPD) ([1]; suspension in n-Heptane, 25° C.): Crystal forms C + D | Crystal form (XRPD) ([1]; suspension in n-Heptane, 50° C.): Crystal forms C + D | Crystal form (XRPD) ([1]; suspension in n-Hexane, 25° C.): Crystal form D | Crystal form (XRPD) ([1]; suspension in n-Hexane, 50° C.): Crystal form D

SMILES: Cc1cc(Nc2ncc(Cl)c(Nc3ccccc3S(=O)(=O)C(C)C)n2)c(OC(C)C)cc1C1=CCN(C2CCOCC2)CC1 [listing 2 of 3 here]
Total impurities [2, 4]: 1.24% | Crystal form (XRPD) [2, 4]: Significant change | Total impurities ([2]; 40° C./75% RH, 1 M, listed as Phosphate crystal form E): 1.69% | Total impurities ([2]; 40° C./75% RH, 10 d, listed as Phosphate crystal form E): 1.79% | Crystal form (XRPD) ([2]; 40° C./75% RH, 10 d and 1 M, listed as Phosphate crystal form E): Significant change | Total impurities ([2]; 60° C., 1 M, listed as Phosphate crystal form E): 2.74% | Total impurities ([2]; 60° C., 10 d, listed as Phosphate crystal form E): 3.26% | Crystal form (XRPD) ([2]; 60° C., 10 d and 1 M, listed as Phosphate crystal form E): Significant change | Total impurities ([2]; 90% RH, 1 M, listed as Phosphate crystal form E): 3.03% | Total impurities ([2]; 90% RH, 10 d, listed as Phosphate crystal form E): 2.13% | Crystal form (XRPD) ([2]; 90% RH, 10 d and 1 M, listed as Phosphate crystal form E): Significant change | Total impurities ([2]; Illumination, 5 d, listed as Phosphate crystal form E): 3.02% | Crystal form (XRPD) ([2]; Illumination, 5 d and 10 d, listed as Phosphate crystal form E): Significant change | Total impurities ([2]; Illumination, 10 d, listed as Phosphate crystal form E): 5.00%

SMILES: Cc1cc(Nc2ncc(Cl)c(Nc3ccccc3S(=O)(=O)C(C)C)n2)c(OC(C)C)cc1C1=CCN(C2CCOCC2)CC1 [listing 3 of 3 here]
Total impurities ([2]; 0 d, listed as Tartrate crystal form C): 0.28% | Total impurities ([2]; 40° C./75% RH, 1 M, listed as Tartrate crystal form C): 0.38% | Total impurities ([2]; 40° C./75% RH, 10 d, listed as Tartrate crystal form C): 0.37% | Total impurities ([2]; 60° C., 1 M, listed as Tartrate crystal form C): 0.47% | Total impurities ([2]; 60° C., 10 d, listed as Tartrate crystal form C): 0.41% | Total impurities ([2]; 90% RH, 1 M, listed as Tartrate crystal form C): 0.59% | Total impurities ([2]; 90% RH, 10 d, listed as Tartrate crystal form C): 0.48% | Total impurities ([2]; Illumination, 5 d, listed as Tartrate crystal form C): 1.01% | Appearance ([2]; Illumination, 5 d and 10 d): Color deepening | Total impurities ([2]; Illumination, 10 d, listed as Tartrate crystal form C): 1.04%
